“Also recorded” adds a separate entry of the source. Read-outs that look alike come from different tables or passages of the source.
What was measured:
[1] = system: TOP2A-dependent TCF-transcription in SW620-TOP tumor organoids; assay: TCF (TOPflash) reporter assay in 3D tumor organoids; type: cell-based; settings: for IC50: 72 hours
Protocol: TCF reporter assay in 3D Tumor organoid. Stable engineered cells containing pCDH-TOPflash-luc-EF1-puro were used to generate tumor organoid arrayed in 96-well plates and treated for 72 hours. One-Glo™ luciferase reagent and CellTiter-Glo™ 3D cell viability reagent (Promega) were used to determine the TCF reporter activity in viable cells.
After characterizing 3 and 7 as TOP2A ATP-competitive inhibitors, these compounds were next tested for their ability to inhibit TOP2A-dependent TCF-transcription using the well characterized TOPflash (TOP) luminescent reporter, which was used to generate a stably transduced SW620-TOP reporter cells as described previously (Zhou, et al., Oncogene 2016, 35:4990-9). These cells were used to generate single 3D tumor organoids (700 μm in diameter) uniformly arrayed in 96-well plates, which mimic aspects of tumor function observed in vivo. […] Like neo, the mode of action of compounds 3 and 7 also results in significant antitumor activity (FIGS. 3E-3H). […] In other words, the activity of 3 and 7 is long lasting, suppressing CSC stemness and related tumorigenicity. EMT is a major driving force promoting tumor cell invasion and metastasis. […] Tumor organoids were dissociated, and viable cells were washed and plated into the top chamber of 96-well invasion plate coated with Matrigel and incubated for an additional 72 hours without adding any additional compound. […] Taken together, the biological activity of 3 and 7 is consistent with the activity of neo, inhibiting TOP2A-dependent TCF-transcription that in turn reverses EMT while inhibiting the associated tumorigenic properties of mCRC.
A similar trend in IC50 values was observed compared to TOP2A enzyme studies, further supporting our proposed mechanism of action as inhibition of TOP2A-dependent TCF-transcription.
3D Tumor organoid TOPflash reporter assay. […] 35(38): p. 4990-9.] were used to generate tumor organoids arrayed in 96-well plates and treated for 72 h with TOP2A inhibitors. One-Glo™ luciferase reagent and CellTiter-Glo™ 3D cell viability reagent (Promega, WI) were used to determine the TCF reporter activity in viable cells. Briefly, reagents were added to the spheroids at 1:1 ratio (v:v) and the plates were placed on an orbital shaker (300 rpm) for 10 min at room temperature before the luminescence was read with Envision plate reader (PerkinElmer, MA). TCF reporter activity was normalized to organoid viability and inhibitors treated conditions were normalized to DMSO treated controls.

[2] = system: E-cadherin promoter activity (EcadPro-RFP) in SW620 cells; assay: EcadPro-RFP (mCherry) EMT reporter assay; type: cell-based; settings: SW620 tumor organoids; for EC50: Table 2, 72 hours, read-out: % E-cadherin upregulation EC50
Excerpt: (§1) VimPro-GFP and EcadPro-RFP reporter assays. […] 35(38): p. 4990-9.]
as §1

[3] = target: T1, hTopoIIα (TOP2A) (Homo sapiens, UniProt P11388); assay: TOP2A ATPase / DNA relaxation assay, Michaelis-Menten mode of inhibition (malachite green); type: biochemical; settings: Vmax unchanged, KM shifted
T1 construct: purchased Topogen, CO
Protocol: TOP2A inhibition (Michaelis-Menten). TOP2A Mode of Inhibition was tested with a relaxation assay and the inorganic phosphate (pi) generated was measured with phosphate reagent (Abcam) in black polystyrene 384-well assay plates (Thermo Fisher Scientific). ATP-dependent DNA relaxation assays in 15 μl contained 2 U hTopolla (Topogen), 85 μg/mil (10 nM) supercoiled plasmid (a gift from AstraZeneca), and various concentrations of ATP (between […]) and analog 3 and 7 (between 0 and 20 μM) in 50 mM Tris-HCl (pH 7.5), 150 mM KCl, 5% (v/v) glycerol, 10 mM MgCl2, 1 mM dithiothreitol, 0.002% (w/v) Brij-35, and 200 nM bovine serum albumin (BSA). […] An addition of 70 μL of ddH2O and 15 μL of phosphate reagent were added to each well and the plates were incubated in dark at room temp for 30 min before OD600 was read with a BioTek plate reader. […]
TOP2A ATPase Assay. The mode of inhibition of TOP2A analogs were tested with a DNA relaxation assay and the inorganic phosphate (pi) generated was measured with malachite green phosphate reagent (Abcam, MA) in black polystyrene 384-well assay plates (Thermo Fisher Scientific, MA). […] An addition of 70 μL of ddH2O and 15 μL of phosphate reagent were added to each well and the plates were incubated in dark at room temp for 30 min before OD600 was read with a BioTek plate reader. […]

[4] = SW620-TOP tumor organoids, read-out: IC50 inhibition of TCF-transcription
[5] = Homo sapiens, SW-620, Table 2, SW620 tumor organoids, read-out: % TCP inhibition IC50

T1 sequence (P11388 whole entry): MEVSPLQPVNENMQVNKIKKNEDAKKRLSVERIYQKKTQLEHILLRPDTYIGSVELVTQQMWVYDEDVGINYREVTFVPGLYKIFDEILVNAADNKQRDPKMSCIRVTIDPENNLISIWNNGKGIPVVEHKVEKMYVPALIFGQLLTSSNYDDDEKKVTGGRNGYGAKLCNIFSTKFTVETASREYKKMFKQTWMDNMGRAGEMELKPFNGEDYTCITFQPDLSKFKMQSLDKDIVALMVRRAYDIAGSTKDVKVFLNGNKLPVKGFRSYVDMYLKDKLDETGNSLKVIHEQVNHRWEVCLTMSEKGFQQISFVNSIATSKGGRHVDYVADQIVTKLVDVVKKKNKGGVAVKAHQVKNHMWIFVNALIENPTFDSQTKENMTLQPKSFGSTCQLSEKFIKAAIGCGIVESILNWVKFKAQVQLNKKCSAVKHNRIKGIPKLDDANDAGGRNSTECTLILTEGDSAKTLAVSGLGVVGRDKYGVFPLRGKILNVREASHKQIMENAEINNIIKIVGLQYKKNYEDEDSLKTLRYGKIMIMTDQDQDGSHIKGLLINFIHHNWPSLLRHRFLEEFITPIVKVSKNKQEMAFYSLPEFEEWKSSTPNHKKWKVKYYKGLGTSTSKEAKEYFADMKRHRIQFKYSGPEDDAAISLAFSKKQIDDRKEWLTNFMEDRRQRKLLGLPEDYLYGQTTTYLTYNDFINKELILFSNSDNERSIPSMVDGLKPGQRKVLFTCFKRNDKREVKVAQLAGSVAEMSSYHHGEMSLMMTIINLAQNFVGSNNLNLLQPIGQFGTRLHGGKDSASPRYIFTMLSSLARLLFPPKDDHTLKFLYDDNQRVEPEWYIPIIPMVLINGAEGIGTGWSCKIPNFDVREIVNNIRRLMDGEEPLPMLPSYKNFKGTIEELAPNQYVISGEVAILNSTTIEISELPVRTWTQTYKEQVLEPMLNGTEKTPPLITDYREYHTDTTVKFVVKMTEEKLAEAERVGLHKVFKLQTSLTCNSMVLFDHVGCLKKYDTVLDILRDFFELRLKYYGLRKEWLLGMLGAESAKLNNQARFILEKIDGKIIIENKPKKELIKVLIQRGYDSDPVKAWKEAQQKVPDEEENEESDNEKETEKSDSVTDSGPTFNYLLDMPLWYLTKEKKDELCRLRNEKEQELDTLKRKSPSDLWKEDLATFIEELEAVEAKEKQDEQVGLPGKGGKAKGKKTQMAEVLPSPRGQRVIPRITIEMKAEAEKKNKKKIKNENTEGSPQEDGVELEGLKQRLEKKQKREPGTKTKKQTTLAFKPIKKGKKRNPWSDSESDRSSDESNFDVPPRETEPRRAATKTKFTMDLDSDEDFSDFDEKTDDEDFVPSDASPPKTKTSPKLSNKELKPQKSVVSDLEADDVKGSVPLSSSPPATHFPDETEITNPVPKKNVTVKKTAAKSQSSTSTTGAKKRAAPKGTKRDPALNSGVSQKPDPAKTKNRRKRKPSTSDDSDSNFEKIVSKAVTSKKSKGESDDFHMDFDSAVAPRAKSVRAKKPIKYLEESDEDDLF

| Structure (SMILES) | IC50 [1, 4] [µM] | EC50 [2] [µM] | mode of TOP2A inhibition (Michaelis-Menten kinetics of ATP hydrolysis) [3] | IC50 [1, 5] [µM] | EC50 ([2]; Homo sapiens, SW-620) [µM] | also measured |
| --- | --- | --- | --- | --- | --- | --- |
| CC(=O)Nc1ccc(-c2ccnc3c(O)c(NC(C)=O)ccc23)cc1 [Analog 35] | 2 | 5.5 |  |  |  |  |
| CC(C)(C)C(=O)Nc1ccc2c(-c3ccccc3)ccnc2c1O [Analog 39] |  | 3.1 |  |  |  | IC50 ([1]; Table 2, SW620 tumor organoids, read-out: % TCP inhibition IC50): 4.7 µM |
| CC(=O)Nc1ccc2c(-c3cc(F)ccc3O)ccnc2c1O [Analog 7] |  |  | ATP-competitive mode of inhibition | 6 | 5.3 | inhibition of TCF-transcription (TOP-activity), in words ([1]; SW620 tumor organoids, TOPflash reporter): significantly inhibit TOP-activity; also recorded: significantly inhibit TOP2A-dependent TCF-transcription; E-cadherin upregulation (EcadPro-RFP), in words [2]: upregulation of E-cadherin |
| Cn1ccc2c(c1=O)C(=O)c1nccc3c1C2NC1=CCC=CC13 (stereo not drawn) [neo, neoamphimedine, reference compound] |  |  | ATP-competitive mode of inhibition |  |  |  |
| O=C(CCN1CCOCC1)Nc1ccc2c(-c3cc(F)ccc3O)ccnc2c1O [Analog 42] | 3.2 |  |  | 3.2 | 5.9 |  |
| CC(=O)Nc1ccc2c(-c3ccoc3)ccnc2c1O [Analog 56] |  |  |  | 7 | 10.6 |  |
